# Results: patent US20240261236A1, “METHODS OF USING NMDA RECEPTOR ANTAGONISTS” (Seelos Therapeutics, Inc., priority 2021, published 2024)
# Legend:
# [1] = tested on: adults with major depressive disorder (MDD) who are at imminent risk of suicide; experiment: MADRS item 10 (suicidal thoughts), Phase 2 Part 1; format: in vivo, human; details: for MADRS item 10 (suicidality) score: 24 hours post-administration, baseline 5 units; for MADRS Item 10 mean score: baseline 5.2; for MADRS Suicide Item-10 response rate: summary through Day 29/30
# Description: The Montgomery-Åsberg Depression Rating Scale (MADRS) is a diagnostic questionnaire that can be used to measure the severity of a depressive episode in a subject. In some embodiments, the MADRS can be used to measure suicidal ideation. For example, the MADRS includes 10 items directed to the following: 1) apparent sadness (e.g., representing despondency, gloom and despair that is more than just ordinary transient low spirits that is reflected in speech, facial expression, and posture); 2) reported sadness (e.g., representing reports of depressed mood, regardless of whether it is reflected in appearance or not and can include low spirits, despondency or the feeling of being beyond help and without hope); 3) inner tension (e.g., representing feelings of ill-defined discomfort, edginess, inner turmoil, mental tension mounting to either panic, dread or anguish); 4) reduced sleep (e.g., representing the experience of reduced duration or depth of sleep compared to the subject's own normal pattern when well); 5) reduced appetite (e.g., representing the feeling of a loss of appetite compared with when-well); 6) concentration difficulties (e.g., representing difficulties in collecting one's thoughts mounting to an incapacitating lack of concentration); 7) lassitude (e.g., representing difficulty in getting started or slowness in initiating and performing everyday activities); 8) inability to feel (e.g., representing the subjective experience of reduced interest in the surroundings, or activities that normally give pleasure, and the ability to react with adequate emotion to circumstances or people is reduced); 9) pessimistic thoughts (e.g., representing thoughts of guilt, inferiority, self-reproach, sinfulness, remorse and ruin); and 10) suicidal thoughts (e.g., representing the feeling that life is not worth living, that a natural death would be welcome, suicidal thoughts, and preparations for suicide). Each item is rated from 0 units to 6 units, with 0 reflecting that the subject is not at all as described by the item and 6 reflecting that the subject is extremely like what is described by the item. […] As another example, for suicidal thoughts, a score of 0 units can indicate that the subject enjoys life or takes it as it comes; a score of 2 units can indicate that the subject is weary of life and may have fleeting suicidal thoughts; a score of 4 units can indicate that the subject feels he or she would probably be better off dead (e.g., suicidal thoughts are common, and suicide is considered as a possible solution, but without specific plans or intention); and a score of 6 units can indicate that the subject has explicit plans for suicide when there is an opportunity (e.g., the subject has made active preparations for suicide). Thus, the total score, after summation of each score for each item, is on a scale of 0 units to 60 units.
# In some embodiments, item 10, e.g., suicidal thoughts, of the MADRS can be used to measure suicidal ideation.
# The secondary endpoints are the change from baseline at 24 hours, as well as at Day 16, in the following: • (1) S-STS total score • (2) MADRS Total at Day 16 (only) • (3) Clinical Global Impression (CGI) of Severity for SI/B (CGIS-SI/B) and Change in SI/B (CGIC-SI/B) • (4) Patient Global Impression (PGI) of Severity for SI/B (PGIS-SI/B) and Change in SI/B (PGIC-SI/B • (5) S-STS Clinician-Rated Global Severity of Suicidal Impulses, Thoughts, and Behaviors • (6) S-STS Clinician judgment of subject's risk of a suicide attempt or death by suicide at this time • (7) S-STS Clinician judgment of subject's likelihood (risk) of making a suicide attempt or of dying by suicide in the next 7 days • (8) S-STS Subject-rated global severity of suicidal impulses, thoughts, and behavior • (9) S-STS Subject-rated treatment needed score • (10) MADRS item 10 response rate (response ≤3 units) • (11) MADRS Total response (total score ≥50% reduction from baseline) • (12) MADRS Total remission (total score ≤12 units) […]
# [2] = Hemodynamic effects (blood pressure), Phase 2 Part 1; format: in vivo, human; details: for Diastolic BP: baseline 79.0; for Systolic BP: baseline 121
# Description: The study schedule is identical for Parts 1 and 2. After admission to the emergency room or hospital, each subject will participate in a 1 to 2 day screening phase, a 16-day treatment phase including SOC during which study drug will be administered 2 times per week, for a total of 5 doses across the 16-day treatment period and a 2-week safety follow-up phase for a total of up to 5 weeks of study participation. Subjects will be treated as inpatients for approximately 7 days (including screening), and assuming the subject meets readiness for discharge criteria, will be discharged on Day 6 to continue the trial as outpatients, provided it is clinically appropriate to do so. Subjects will return to the clinic to receive study drug and to undergo study assessments 2 times per week until Day 16. Subjects will be evaluated for efficacy using multiple psychometric scales and for safety using clinical laboratory assessments, electrocardiograms (ECGs), vital signs, and physical examinations. After the last dose of study drug, subjects will continue to be monitored for safety for 2 weeks, including 4 in-person safety follow-up visits on Days 19, 22, 25/26, and 29/30.
structure (smiles),measurement,setting,value
"CNC1(c2ccccc2Cl)CCCCC1=O (racemic) [intranasal racemic ketamine, 1:1 mixture of the two enantiomers of ketamine: (R)-2-(2-chlorophenyl)-2-(methylamino)cyclohexanone and (S)-2-(2-chlorophenyl)-2-(methylamino)cyclohexanone]","sustained response on MADRS Item 10, time after the final administration",[1]; 90 mg IN+SOC,15 days
same,MADRS item 10 (suicidality) score,"[1]; 90 mg IN+SOC, Subject 1, range 0-6",0 units
same,MADRS item 10 (suicidality) score,"[1]; 90 mg IN+SOC, second subject (not given)",0 units
same,subjects who experienced MADRS Item 10 response,[1]; 24 hours post-dose,94.1%
same,MADRS Item 10 mean score,[1]; Day 1,0.8
same,subjects who experienced MADRS Item 10 response,[1]; Day 16,100%
same,MADRS Item 10 mean score,[1]; Day 29,0.0
same,subjects who experienced MADRS Item 10 response,[1]; study end (Day 29/30),100%
same,MADRS Suicide Item-10 response rate,[1]; Day 1,94%
same,MADRS Suicide Item-10 response rate,[1]; Day 16,100%
same,Diastolic BP,[2]; 1 hour post first dose,80.9
same,Systolic BP,[2]; 1 hour post first dose,125.8
same,Diastolic BP,[2]; 2 hours post first dose,78.5
same,Systolic BP,[2]; 2 hours post first dose,121.3
